# Structures can show the parent of a compound that is named as a salt. Where two headings read alike, the source gives them in different places. Where a SMILES comes first, the peptide text is derived from it. The star is where a group is joined. X1 = CCC1=C(C)c2cc3[nH]c(cc4nc(c(C)c5cc(C)c(cc1n2)[nH]5)[C@@H](CCC(=O)*)[C@@H]4C)c(C)c3CC
# Experiments:
# [1] = system: Human ovarian cancer cell line SKOV3; test: Phototoxicity in SKOV3 cells after 660 nm laser or LED activation (AlamarBlue viability); format: cell-based
# Method: Samples were stored at 4° C. protected from light. […] All data are shown as mean±SD (where appropriate). […] Laser and LED exposure induce an equivalent response in relation to phototoxicity. Following activation, cells were cultured for a further 24 hours. Media was then replaced with fresh media containing AlamarBlue, and % viable cells remaining assessed as above. Controls included cells treated with reduced chlorin analogues but not activated by laser light; cells without reduced chlorin analogue treatment but with laser light; and untreated controls. All measurements were made in quadruplicate.
# [2] = system: Human ovarian cancer cell line SKOV3; test: Inherent cytotoxicity (dark toxicity) in SKOV3 cells (AlamarBlue viability); format: cell-based
# Method: Photosensitizers (e.g. chlorin analogue, chlorin e4 disodium (provided by Advanced Molecular Technologies, Scoresby) or Talaporfin sodium (purchased from Focus Bioscience cat #HY-16477-5MG)) were resuspended in 100% dimethylsulfoxide (DMSO) at a concentration of 5.5 mM. Samples were stored at 4° C. protected from light.
# All data are shown as mean±SD (where appropriate).
# Untreated cells were used as a control. […] All measurements were made in quadruplicate.
# [3] = SKOV3 cells, 24 hours incubation, no light activation
# [4] = Homo sapiens, SK-OV-3, light or radiation study, SKOV3 cells, 24 hours uptake, 660 nm laser, 50 mW/cm^2 for 5 mins (15 J/cm^2), viability 24 hours after activation, read-out: Phototoxicity μM (IC90)
# [5] = SKOV3 cells, vs phyllochlorin free acid / phyllochlorin sodium salt
# [6] = Homo sapiens, SK-OV-3, light or radiation study, SKOV3 cancer cells, laser or LED, read-out: phototoxicity IC90
compound,measurement,setting,value
"C=Cc1c(C)c2cc3nc(c(C)c4[nH]c(cc5nc(cc1[nH]2)C(C)=C5CC)c(C)c4C(=O)O)[C@@H](CCC(=O)O)[C@@H]3C [Chlorin e4 disodium, chlorin e4 disodium, reference compound]",IC90,"[1]; SKOV3 cells, 24 hours uptake, 660 nm laser, 50 mW/cm^2 for 5 mins (15 J/cm^2), viability 24 hours after activation, read-out: Phototoxicity μM (IC90)",21.3 µM
same,Dark toxicity μM (IC10),[2]; [3],40.23 µM
"CCC1=C(C)c2cc3[nH]c(cc4nc(c(C)c5cc(C)c(cc1n2)[nH]5)[C@@H](CCC(=O)[O-])[C@@H]4C)c(C)c3CC.[Na+] [Compound 2, Reduced Phyllochlorin Sodium Salt]",IC90,[1]; [4],0.071 µM
same,increase in phototoxicity of meso-compound compared to non-meso analogue,[1]; [5],4.9 fold
same,Dark toxicity μM (IC10),[2]; [3],47.840 µM
same,Dark toxicity compared to non-meso analogue,[2]; [5],largely unaffected
"CCC1=C(C)c2cc3[nH]c(cc4nc(c(C)c5cc(C)c(cc1n2)[nH]5)[C@@H](CCC(=O)N[C@H]1C(O)O[C@H](CO)[C@@H](O)[C@@H]1O)[C@@H]4C)c(C)c3CC (some centres unmarked) [Compound 3, Reduced Phyllochlorin 2-deoxyglucosamine-propylamide]",IC90,[1]; [4],0.043 µM
same,Dark toxicity μM (IC10),"[2]; human, 24 h",13.330 µM
"CCC1=C(C)c2cc3[nH]c(cc4nc(c(C)c5cc(C)c(cc1n2)[nH]5)[C@@H](CCC(=O)N(C)CCCS[C@@H]1O[C@H](CO)[C@@H](O)[C@H](O)[C@H]1O)[C@@H]4C)c(C)c3CC [Compound 4, Reduced Phyllochlorin β-D-1-thioglucose-N-methylpropylamide]",IC90,[1]; [4],0.068 µM
same,Dark toxicity μM (IC10),"[2]; human, 24 h",2.780 µM
"CCC1=C(C)c2cc3[nH]c(cc4nc(c(C)c5cc(C)c(cc1n2)[nH]5)[C@@H](CCC(=O)N(C)CCOCCO[C@@H]1O[C@H](CO)[C@@H](O)[C@H](O)[C@H]1O)[C@@H]4C)c(C)c3CC [Compound 5, Reduced Phyllochlorin β-D-1-glucose-N-methyl-2-ethoxy-N-ethanamine]",IC90,[1]; [4],0.102 µM
same,Dark toxicity μM (IC10),"[2]; human, 24 h",18.440 µM
"CCC1=C(C)c2cc3[nH]c(cc4nc(c(C)c5cc(C)c(cc1n2)[nH]5)[C@@H](CCC(=O)N(C)CCCO[C@@H]1O[C@H](CO)[C@@H](O)[C@H](O)[C@H]1O)[C@@H]4C)c(C)c3CC [Compound 9, Reduced Phyllochlorin β-D-glucosyl-N-methylpropylamide]",IC90,[1]; [4],0.098 µM
same,Dark toxicity μM (IC10),"[2]; human, 24 h",12.780 µM
"CCC1=C(C)c2cc3[nH]c(cc4nc(c(C)c5cc(C)c(cc1n2)[nH]5)[C@@H](CCC(=O)N(C)C[C@H](O)[C@@H](O)[C@H](O)[C@H](O)CO)[C@@H]4C)c(C)c3CC [Compound 10, Reduced Phyllochlorin N-meglumine-propylamide]",Dark toxicity μM (IC10),"[2]; human, 24 h",4.905 µM
CCC1=C(C)c2cc3[nH]c(cc4nc(c(C)c5cc(C)c(cc1n2)[nH]5)[C@@H](CCC(=O)N(C)CCCOCCC[P+](c1ccccc1)(c1ccccc1)c1ccccc1)[C@@H]4C)c(C)c3CC [Compound 11],IC90,[1]; [6],≤ 0.01 µM
same,IC90,[1]; [4],0.003 µM
same,orders of magnitude greater phototoxicity compared to Talaporfin sodium,"[1]; SKOV3 cells, IC90 compared",4 orders of magnitude
same,Dark toxicity μM (IC10),"[2]; human, 24 h",4.347 µM
"CCC1=C(C)c2cc3[nH]c(cc4nc(c(C)c5cc(C)c(cc1n2)[nH]5)[C@@H](CCC(=O)N(C)CCOCCOCCO)[C@@H]4C)c(C)c3CC [Compound 12, Reduced Phyllochlorin N-(2-(2-(2-hydroxyethoxy)ethoxy)ethyl)-N-methyl-3-amide]",IC90,[1]; [4],0.078 µM
same,Dark toxicity μM (IC10),"[2]; human, 24 h",5.975 µM
"CCC1=C(C)c2cc3[nH]c(cc4nc(c(C)c5cc(C)c(cc1n2)[nH]5)[C@@H](CCC(=O)N(C)CCOCCOCC[n+]1ccccc1)[C@@H]4C)c(C)c3CC [Compound 13, Reduced Phyllochlorin N-(2-(2-(2-pyridiniumethoxy)ethoxy)ethyl)-N-methyl-3-amide chloride]",IC90,[1]; [6],≤ 0.01 µM
same,IC90,[1]; [4],0.006 µM
same,Dark toxicity μM (IC10),"[2]; human, 24 h",1.260 µM
"CCC1=C(C)c2cc3[nH]c(cc4nc(c(C)c5cc(C)c(cc1n2)[nH]5)[C@@H](CCC(=O)N(C)CCOCCOCCOCCOCCOCCOC)[C@@H]4C)c(C)c3CC [Compound 14, Reduced Phyllochlorin N-methyl-N-3,6,9,12,15,18-hexaoxanonadecyl propylamide]",IC90,[1]; [4],0.161 µM
same,Dark toxicity μM (IC10),"[2]; human, 24 h",3.940 µM
"CCC1=C(C)c2cc3[nH]c(cc4nc(c(C)c5cc(C)c(cc1n2)[nH]5)[C@@H](CCC(=O)N[C@@H]1C(O)O[C@H](CO)[C@@H](O)[C@@H]1O)[C@@H]4C)c(C)c3CC (stereo partly drawn) [Compound 15, Reduced Phyllochlorin 2-deoxy-D-mannosamine-propylamide]",IC90,[1]; [4],0.07 µM
same,Dark toxicity μM (IC10),"[2]; human, 24 h",5.400 µM
"CCC1=C(C)c2cc3[nH]c(cc4nc(c(C)c5cc(C)c(cc1n2)[nH]5)[C@@H](CCC(=O)N(C)CCOCCOCC[P+](c1ccccc1)(c1ccccc1)c1ccccc1)[C@@H]4C)c(C)c3CC [Compound 16, Reduced Phyllochlorin N-(2-(2-(2-triphenylphosphoniumethoxy)ethoxy)ethyl)-N-methyl-3-amide chloride]",IC90,[1]; [4],0.011 µM
same,Dark toxicity μM (IC10),"[2]; human, 24 h",3.205 µM
"CCC1=C(C)c2cc3[nH]c(cc4nc(c(C)c5cc(C)c(cc1n2)[nH]5)[C@@H](CCC(=O)N(C)CCC[S+]([O-])[C@@H]1O[C@H](CO)[C@@H](O)[C@H](O)[C@H]1O)[C@@H]4C)c(C)c3CC (stereo partly drawn) [Compound 17, Reduced Phyllochlorin β-D-1-thioglucose-N-methylpropylamide sulfoxide]",IC90,[1]; [4],0.174 µM
same,Dark toxicity μM (IC10),"[2]; human, 24 h",4.752 µM
"CCC1=C(C)c2cc3[nH]c(cc4nc(c(C)c5cc(C)c(cc1n2)[nH]5)[C@@H](CCCN)[C@@H]4C)c(C)c3CC [Compound 18, Reduced Phyllochlorin 3-aminopropyl]",IC90,[1]; [6],≤ 0.01 µM
same,IC90,[1]; [4],0.01 µM
same,Dark toxicity μM (IC10),"[2]; human, 24 h",3.946 µM
"CCC1=C(C)c2cc3[nH]c(cc4nc(c(C)c5cc(C)c(cc1n2)[nH]5)[C@@H](CCC(=O)N(C)CCO)[C@@H]4C)c(C)c3CC [Compound 19, Reduced Phyllochlorin N-2-hydroxyethyl-N-methyl propylamide]",IC90,[1]; [4],0.061 µM
same,Dark toxicity μM (IC10),"[2]; human, 24 h",15.940 µM
"CCC1=C(C)c2cc3[nH]c(cc4nc(c(C)c5cc(C)c(cc1n2)[nH]5)[C@@H](CCCO)[C@@H]4C)c(C)c3CC [Compound 20, Reduced Phyllochlorin 3-hydroxypropyl]",IC90,[1]; [4],0.063 µM
same,Dark toxicity μM (IC10),"[2]; human, 24 h",5.825 µM
"CCC1=C(C)c2cc3[nH]c(cc4nc(c(C)c5cc(C)c(cc1n2)[nH]5)[C@@H](CCC(=O)N(C)CCCCCCCCCC[P+](c1ccccc1)(c1ccccc1)c1ccccc1)[C@@H]4C)c(C)c3CC [Compound 21, Reduced Phyllochlorin ((methylamino)-10-decyl)triphenylphosphonium Chloride Propylamide]",IC90,[1]; [4],0.022 µM
same,Dark toxicity μM (IC10),"[2]; human, 24 h",1.465 µM
"CCC1=C(C)c2cc3[nH]c(cc4nc(c(C)c5cc(C)c(cc1n2)[nH]5)[C@@H](CCC(=O)N(C)CCCO)[C@@H]4C)c(C)c3CC [Compound 22, Reduced Phyllochlorin N-3-hydroxypropyl-N-methyl Propylamide]",IC90,[1]; [4],0.042 µM
same,Dark toxicity μM (IC10),"[2]; human, 24 h",4.348 µM
"CCC1=C(C)c2cc3[nH]c(cc4nc(c(C)c5cc(C)c(cc1n2)[nH]5)[C@@H](CCC(=O)N(C)CCCCCO)[C@@H]4C)c(C)c3CC [Compound 23, Reduced Phyllochlorin N-5-hydroxypentyl-N-methyl Propylamide]",IC90,[1]; [4],0.064 µM
same,Dark toxicity μM (IC10),"[2]; human, 24 h",4.540 µM
"CCC1=C(C)c2cc3[nH]c(cc4nc(c(C)c5cc(C)c(cc1n2)[nH]5)[C@@H](CCC(=O)N[C@H]1C(O)O[C@H](CO)[C@H](O)[C@@H]1O)[C@@H]4C)c(C)c3CC (stereo partly drawn) [Compound 24, Reduced Phyllochlorin 2-deoxy-D-galactosamine-propylamide]",IC90,[1]; [4],0.049 µM
same,Dark toxicity μM (IC10),"[2]; human, 24 h",7.011 µM
"CCC1=C(C)c2cc3[nH]c(cc4nc(c(C)c5cc(C)c(cc1n2)[nH]5)[C@@H](CCC(=O)N[C@@H](CCCCN)C(=O)N[C@@H](CCCCN)C(=O)N[C@@H](CCCCN)C(=O)N[C@@H](CCCCN)C(=O)N[C@@H](CCCCN)C(=O)N(C)C)[C@@H]4C)c(C)c3CC [Compound 26, Reduced Phyllochlorin lysyl-lysyl-lysyl-lysyl-lysyl Dimethylamide Propylamide Pentahydrochloride] (X1-KKKKK-NMe2)",IC90,[1]; [4],0.494 µM
same,Dark toxicity μM (IC10),[2]; [3],14.670 µM
"C=Cc1c(C)c2cc3nc(c(CC(=O)N[C@@H](CC(=O)O)C(=O)O)c4[nH]c(cc5nc(cc1[nH]2)C(C)=C5CC)c(C)c4C(=O)O)[C@@H](CCC(=O)O)[C@@H]3C [Talaporfin sodium, reference compound]",Dark toxicity μM (IC10),"[2]; human, 24 h",11.10 µM

# — patent US20250127898A1, “PHOTODYNAMIC THERAPY AND DIAGNOSIS” (RMW CHO Group Limited, priority 2021, published 2025)
